Laboratory results reported in patent publication US8541442B2, “Indole derivatives as anticancer agents” (Janssen Pharmaceutica N.V., priority 2009, dated 2013).
Read-outs that look alike come from different tables or passages of the source.

Legend:
[1] = system: human U87 glioma tumor; test: In vivo anti tumour effects, U87 glioma xenograft; details: U87 xenograft in NMRI Nude mice, 20 mg/kg p.o. QD for 5 days; for response vs control in vivo at 20 mg/kg: Mus musculus, U-87 MG, po
Procedure: Immuno-deficient (athymic) male NMRI Nude (Nu/Nu) mice (20-25 g obtained from Janvier, France) were used for these studies. Initial weight was approximately […]. All animals were maintained under SPF “full barrier” conditions with free access to food and water. Mice were group housed under a 12-h light:dark cycle (lights on at 06:00 h) at a temperature of 19 to 22° C. and 35 to 40% humidity in Techniplast type-3 IVC cages. Mice were fed a standard Laboratory chow. All experiments were carried out in accordance with the European Communities Council Directives (86/609/EEC) and had to be approved by the local ethical committee. For an established tumor xenograft model (tumor volume ˜200 mm^3), mice were randomized according to tumor volumes, with 5 mice per treatment group.
The human U87 glioma tumor cell line was derived from a patient. Cells were cultured at 37° C. in a humidified atmosphere (5% CO2, 95% air), in DMEM medium supplemented with 2 mM L-glutamine, 2.0 mM sodium pyruvate, 25 units/ml penicillin/25 μg/ml streptomycin and 10% fetal bovine serum. Cells were maintained as cell monolayer cultures, being passaged twice weekly at 3×10^6 cells per T175 flask using the following procedure. Briefly cells were washed with PBS (without Mg^2+, Ca^2+), before addition of trypsin-EDTA to the culture flasks. After detachment of cells the trypsin-EDTA was inactivated by addition of complete medium. Cell suspension was then transferred to 50 ml Falcon tube and centrifuged for 3 min at 1200 rpm. Medium was aspirated, with the cells being re-suspended in an appropriate volume of complete medium. The cells were counted in a haemocytometer and their viability was assessed by 0.25% trypan blue exclusion. An appropriate volume of cell suspension was then added to either a new T175 culture flask(s) or roller bottle containing fresh medium. For large scale-up growth of U87 tumor cells, an appropriate number of roller bottles were seeded with 0.5 to 1×10^7 cells 1 week prior to inoculation of mice. The medium was changed twice during this period, with the last change being the day prior to cell injection. Cells were collected as described above, with the exception that after centrifugation, the cells were re-suspended in cold (4° C.) serum-free medium. Mice were injected in the inguinal region with 1×10^7 cells total in a 200 μl volume.
Human U87 glioma cells were injected directly into the inguinal region of the male NMRI Nude mice (1×10^7 cells/200 μl/animal) on day 0 (D0). On day 7-10 (can vary due to tumor take/growth between cell batches) when tumor volume had reached an approximate average of 200 mm^3, mice were randomized according to tumor volume, with 5 mice per treatment group. Mice were then treated once daily (QD) with either vehicle (10% HP-β-CD) or vehicle containing test compound (20 mg/kg) by gavage (p.o.) administered in a volume of 10 ml/kg body weight for 5 days. Specific tumor measurements were taken on day 6 (24 hours post 5th dose) and then again on day 10. Tumor re-growth (after dosing has stopped) was monitored so that the time-to-reach a volume of 2000 mm^3 (TTR2000) can be recorded. This gives extra information on the duration of drug action on the tumor growth. In general, tumor size and body weights were measured twice weekly, with mice monitored daily for clinical signs of toxicity for the duration of the treatment. Clinical signs of toxicity included (but not limited to), persistent anorexia or dehydration, posture, moribund, lethargy, hypothermia and/or laboured respiration (according to the UKCCCR guidelines for welfare of animals in experimental neoplasia (The UKCCCR (UK Coordinating Committee on Cancer Research) guidelines for the welfare of animals in experimental neoplasia (July 1997); and Workman, P. et al. UKCCCR guideline. Br. J. Cancer. 1998, 77: 1-10). […]

[2] = system: non-small cell lung cancer cell line H1299; test: Alamar Blue cell proliferation assay, H1299; assay type: cell-based; details: for H1299 cell proliferation inhibition pIC50: H1299 cells; for IC50: Homo sapiens, NCI-H1299, H1299 cells, read-out: H1299 cell proliferation inhibition pIC50 (converted)
Procedure: (§1) For experiments in 384 wells plates the cells were seeded at a density of 5×10^3 cells/ml in Falcon 384-well culture plates (Life Technologies, Merelbeke, Belgium), black with clear bottom, in 45 μl culture medium. Cells were allowed to adhere to plastic for 24 hr. The tested compound was pre-diluted (1/50 in culture medium) and 5 μl pre-diluted compound was added to the wells. Following 4-day incubation, 10 μl of the Alamar Blue solution was added to each well and the cells were further incubated for 5 hrs (A2780) at 37° C. The fluorescence intensity was measured for each well with a Fluorescence plate reader (Fluorskan, Labsystems, 540 nm excitation and 590 nm emission)
(§2) The antiproliferative activity was calculated as percentage of remaining viable cells in treated versus control (untreated cells) conditions. Within an experiment, the result for each experimental condition is the mean of 3 replicate wells. When appropriate, the experiments were repeated to establish full concentration-response curves. When appropriate, IC50-values (concentration of the drug, needed to reduce cell growth to 50% of the control) were computed using probit analysis for graded data (Finney, D. J., Probit Analyses, 2nd Ed. Chapter 10, Graded Responses, Cambridge University Press, Cambridge 1962). Herein the effects of test compounds are expressed as pIC50 (the negative log value of the IC50-value (M)) (see Table 5A).
(§3) Compounds were also tested according to the above protocol but using other cell lines: colorectal cancer cell line HCT116, non-small cell lung cancer cell line H1299, human prostate cancer cell line DU145.

[3] = system: A2780 ovarian cancer cells; test: Alamar Blue cell proliferation assay, A2780; assay type: cell-based, human; details: 4-day incubation; for IC50: Homo sapiens, A2780, 96 h, read-out: A2780 cell proliferation inhibition pIC50 (converted)
Procedure: The human A2780 ovarian cancer cells were a kind gift from Dr. T. C. Hamilton (Fox Chase Cancer Centre, Pennsylvania, U.S.A.). The cells were cultured in RPMI 1640 medium supplemented with 2 mM L-Glutamine, 50 μg/ml gentamicin and 10% fetal calf serum.
Potassium Phosphate Buffer 0.1 M (PPB) was made as follows: 2.72 gram KH2PO4 and 13.86 gram K2HPO4 were dissolved in 500 ml milli-Q H2O, the pH was adjusted to pH 7.4 and the volume was brought to 1 liter with milli-Q H2O; the buffer was filter sterilised and stored at room temperature. Resazurin stock solution (PPB-A) was prepared fresh by dissolving 45 mg resazurin in 15 ml PBS. 30 mM potassium ferricyanide (PPB-B) was prepared by dissolving 0.987 gram potassium ferricyanide in 100 ml PPB. 30 mM potassium ferrocyanide (PPB-C) was prepared by dissolving 1.266 gram potassium ferrocyanide in 100 ml PPB.
Mixture of PPB-A, PPB-B and PPB-C was prepared by mixing equal volumes of the respective solutions. Resazurin work solution (herein termed “Alamar Blue” solution) was prepared by diluting said mixture 20×(vol/vol) in PPB and filter sterilising; the Alamar Blue solution could be kept at 4° C. for a maximum of 2 weeks.
as §1, §2

[4] = system: human prostate cancer cell line DU145; test: Alamar Blue cell proliferation assay, DU145; assay type: cell-based; details: for DU145 cell proliferation inhibition pIC50: DU145 cells; for IC50: Homo sapiens, DU-145, DU145 cells, read-out: DU145 cell proliferation inhibition pIC50 (converted)
Procedure: as §1, §2, §3

[5] = day 6 after start dosing, 20 mg/kg
[6] = day 10 after start dosing, 20 mg/kg

SMILES	% T/C day 6 [1, 5]	% T/C day 10 [1, 6]	H1299 cell proliferation inhibition pIC50 [2]	A2780 cell proliferation inhibition pIC50 [3]	% T/C day 6 ([1]; day 6 after start dosing)	% T/C day 10 ([1]; day 10 after start dosing)	DU145 cell proliferation inhibition pIC50 [4]	IC50 [4]	IC50 [2]	IC50 [3]	response vs control in vivo at 20 mg/kg ([1]; 144 h, day 6 after start dosing, read-out: % T/C day 6)	response vs control in vivo at 20 mg/kg ([1]; 240 h, day 10 after start dosing, read-out: % T/C day 10)
Cc1cc(Nc2ccnc3c2CCC3O)ccc1NCCc1c[nH]c2c(C(C)O)cccc12 (single isomer, unassigned) [Compound 12]	64%	71%	5.2	7.20								
Cc1cc(Nc2ccnc3c2CCC3O)ccc1NCCc1c[nH]c2c(C(C)O)cccc12 (single isomer, unassigned) [Compound 15]	53%	88%	5.82	7.27								
Cc1cc(Nc2ccnc3c2CCC3O)ccc1NCCc1c[nH]c2c(CCO)cccc12 (single isomer, unassigned) [Compound 23]			5.61	6.52	72%	95%	5					
COC1CCc2c(Nc3ccc(NCCc4c[nH]c5c(C(C)(C)O)cccc45)cc3)ccnc21 (single isomer, unassigned) [Compound 24]	60%	1%						295 nM	234 nM	66.1 nM		
COC1CCc2c(Nc3ccc(NCCc4c[nH]c5c(C(C)(C)O)cccc45)cc3)ccnc21 (single isomer, unassigned) [Compound 25]	330%	−3%										
Cc1cc(Nc2ccnc3c2CCC3(C)O)ccc1NCCc1c[nH]c2c(C(C)(C)O)cccc12 (single isomer, unassigned) [Compound 26]	354%	−11%	6.27	7.11			6.18					
Cc1cc(Nc2ccnc3c2CCC3(C)O)ccc1NCCc1c[nH]c2c(C(C)(C)O)cccc12 (single isomer, unassigned) [Compound 27]	193%	22%						1000 nM	1020 nM	141 nM		
COC1CCc2c(Nc3ccc(NCCc4c[nH]c5c(C(C)(C)O)cccc45)c(C)c3)ccnc21 (single isomer, unassigned) [Compound 28]	−280%	−10%	6.73	6.89			6.52					
COC1CCc2c(Nc3ccc(NCCc4c[nH]c5c(C(C)(C)O)cccc45)c(C)c3)ccnc21 (single isomer, unassigned) [Compound 29]	−196%	−13%	6.67	7.14			6.58					
CC(C)(O)c1cccc2c(CCNc3ccc(Nc4ccnc5c4CCC5(C)O)cc3)c[nH]c12 (single isomer, unassigned) [Compound 30]	−61%	−10%	6.02	7.04			6.14					
CC(C)(O)c1cccc2c(CCNc3ccc(Nc4ccnc5c4CCC5(C)O)cc3)c[nH]c12 (single isomer, unassigned) [Compound 31]	179%	1%	5.84	6.84			6.04					
OCc1cccc2c(CCNc3ccc(Nc4ccnc5c4CCC5O)cc3)c[nH]c12 (stereo not drawn) [Compound 6]									9330 nM	214 nM	105%	99%
C=C(C)c1cccc2c(CCNc3ccc(Nc4ccnc5c4CCC5OC)cc3)c[nH]c12 (stereo not drawn) [Compound 7]								251 nM	407 nM	110 nM		
Cc1cc(Nc2ccnc3c2CCC3O)ccc1NCCc1c[nH]c2c(C(C)(C)O)cccc12 (stereo not drawn) [Compound 20]			5.72				5.73			51.3 nM		
